IC50 data for 24 compounds are collected here from patent US10543212B2, “Substituted amines for treating cardiac diseases” (Cardurion Pharmaceuticals, LLC, priority 2017, dated 2020).

The target of this assay is T1, Full-length, GST-tagged, human CaMKIIδ (Homo sapiens, UniProt Q13557).
T1 construct: Full-Length, Glutathione-S-Transferase(GST)-Tagged, Human CaMKIIδ was purchased from Carna Biosciences; purchased Carna Biosciences 02-111
In words: CaMKIIδ binding assay (TR-FRET with BODIPY-labeled probe ligand). A digest of the protocol: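 TR-FRET probe-displacement binding: 0.5 nM GST-CaMKIIδ with 10 μg/mL calmodulin, 1 mM CaCl2, 0.21 nM Tb-anti-GST Ab and 300 nM BODIPY probe in HEPES pH 7.6 buffer. Eight-point 4-fold dilutions, 1 hr at room temperature. IC50 from logistic fit; 100% inhibition defined by 3 μM parent compound.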
(In general: Time-resolved FRET reads energy transfer from a long-lived donor to a nearby acceptor.)

The mark [1] stands for this setting: CaMKIIδ binding assay, activity class per Table 2.
[2] abbreviates: Table 2, CaMKIIδ binding assay, activity given as class A/B/C.
Where [3] appears, read: Table 2, activity class for CaMKIIδ.
Setting [4] is: CaMKIIδ binding assay, results of Table 2.

T1 sequence (Q13557 1-478 isoform Q13557-12): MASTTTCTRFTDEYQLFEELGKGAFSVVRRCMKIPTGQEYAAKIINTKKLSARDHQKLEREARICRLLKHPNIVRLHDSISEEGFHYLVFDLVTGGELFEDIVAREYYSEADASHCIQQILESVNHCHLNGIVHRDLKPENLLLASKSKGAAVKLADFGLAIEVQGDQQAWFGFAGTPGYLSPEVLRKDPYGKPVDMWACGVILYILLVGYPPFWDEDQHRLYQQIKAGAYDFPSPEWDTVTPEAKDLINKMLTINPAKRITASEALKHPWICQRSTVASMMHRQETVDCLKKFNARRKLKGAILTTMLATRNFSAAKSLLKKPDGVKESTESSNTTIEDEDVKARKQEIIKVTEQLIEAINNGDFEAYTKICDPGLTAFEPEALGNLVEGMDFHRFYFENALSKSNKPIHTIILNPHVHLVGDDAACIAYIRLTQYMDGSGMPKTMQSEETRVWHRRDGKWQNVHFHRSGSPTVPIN

One may read the IC50 as the concentration that inhibits the measured activity by half. A high value points to a need for much substance. Take `C[C@@H](Cn1cnnn1)Oc1cc(-c2cnc(Nc3cn(C4CC5(CNC5)C4)nc3OCC(F)(F)F)nc2)ccc1C(F)F` [Example 949, (S)-5-(3-((1-(1H-tetrazol-1-yl)propan-2-yl)oxy)-4-(difluoromethyl)phenyl)-N-(1-(2-azaspiro[3.3]heptan-6-yl)-3-(2,2,2-trifluoroethoxy)-1H-pyrazol-4-yl)pyrimidin-2-amine]: the IC50 under setting [1] is < 10 nM.

For `C[C@@H](Cn1cnnn1)Oc1cc(-c2cnc(Nc3cn(C)nc3OCC(F)(F)F)nc2)ccc1Cl` [Example 759, (S)-5-(3-((1-(1H-tetrazol-1-yl)propan-2-yl)oxy)-4-chlorophenyl)-N-(1-methyl-3-(2,2,2-trifluoroethoxy)-1H-pyrazol-4-yl)pyrimidin-2-amine], under setting [2], the IC50 was < 10 nM.

`C[C@@H](CO)Cn1cc(Nc2ncc(-c3ccc(Cl)c(O[C@@H](C)Cn4cnnn4)c3)cn2)c(C(F)(F)F)n1` [Example 730, (R)-3-(4-((5-(3-(((S)-1-(1H-tetrazol-1-yl)propan-2-yl)oxy)-4-chlorophenyl)pyrimidin-2-yl)amino)-3-(trifluoromethyl)-1H-pyrazol-1-yl)-2-methylpropan-1-ol] gave an IC50 under setting [3] of 10 to 100 nM.

In turn, `C[C@@H](Cn1cnnn1)Oc1cc(-c2cnc(Nc3cn(C(C)(C)C(=O)O)nc3OCC(F)(F)F)nc2)ccc1Cl` [Example 889, (S)-2-(4-((5-(3-((1-(1H-tetrazol-1-yl)propan-2-yl)oxy)-4-chlorophenyl)pyrimidin-2-yl)amino)-3-(2,2,2-trifluoroethoxy)-1H-pyrazol-1-yl)-2-methylpropanoic acid] displayed an IC50 under setting [1] of 10 to 100 nM.

For `C[C@@H](Cn1cnnn1)Oc1cc(-c2cnc(Nc3cn(C4CCN(C5CCOCC5)CC4)nc3C(F)(F)F)nc2)ccc1Cl` [Example 706, (S)-5-(3-((1-(1H-tetrazol-1-yl)propan-2-yl)oxy)-4-chlorophenyl)-N-(1-(1-(tetrahydro-2H-pyran-4-yl)piperidin-4-yl)-3-(trifluoromethyl)-1H-pyrazol-4-yl)pyrimidin-2-amine], the IC50 under setting [3] was < 10 nM.

Compound `COc1nn(C2CCN(C(=O)OC(C)(C)C)CC2)cc1Nc1ncc(-c2ccc(Cl)c(O[C@@H](C)Cn3cnnn3)c2)cn1` [Example 646, tert-butyl (S)-4-(4-((5-(3-((1-(1H-tetrazol-1-yl)propan-2-yl)oxy)-4-chlorophenyl)pyrimidin-2-yl)amino)-3-methoxy-1H-pyrazol-1-yl)piperidine-1-carboxylate] returned an IC50 under setting [3] of 10 to 100 nM.

With `COc1cc(N2CCN3CCCC3C2)ccc1Nc1ncc(-c2ccc(Cl)c(O[C@@H](C)Cn3cnnn3)c2)cn1` (stereo partly drawn) [Example 672, 5-(3-(((S)-1-(1H-tetrazol-1-yl)propan-2-yl)oxy)-4-chlorophenyl)-N-(4-(hexahydropyrrolo[1,2-a]pyrazin-2(1H)-yl)-2-methoxyphenyl)pyrimidin-2-amine], under setting [3], the IC50 is < 10 nM.

For `COc1cc(N2CCOC(CN(C)C)C2)ccc1Nc1ncc(-c2ccc(Cl)c(O[C@@H](C)Cn3cnnn3)c2)cn1` (stereo partly drawn) [Example 615, 5-(3-(((S)-1-(1H-tetrazol-1-yl)propan-2-yl)oxy)-4-chlorophenyl)-N-(4-(2-((dimethylamino)methyl)morpholino)-2-methoxyphenyl)pyrimidin-2-amine], the IC50 under setting [3] is < 10 nM.

Take `COc1cc2c(cc1Nc1ncc(-c3ccc(Cl)c(O[C@@H](C)Cn4cnnn4)c3)cn1)CN(CC1COC1)CC2` [Example 499, (S)-N-(5-(3-((1-(1H-tetrazol-1-yl)propan-2-yl)oxy)-4-chlorophenyl)pyrimidin-2-yl)-6-methoxy-2-(oxetan-3-ylmethyl)-1,2,3,4-tetrahydroisoquinolin-7-amine]: the IC50 under setting [4] is < 10 nM.

`COc1cc(N2C[C@@H]3C[C@H]2CN3)ccc1Nc1ncc(-c2ccc(Cl)c(O[C@@H](C)Cn3cnnn3)c2)cn1` [Example 634, 5-(3-(((S)-1-(1H-tetrazol-1-yl)propan-2-yl)oxy)-4-chlorophenyl)-N-(4-((1S,45)-2,5-diazabicyclo[2.2.1]heptan-2-yl)-2-methoxyphenyl)pyrimidin-2-amine] displayed an IC50 under setting [3] of 10 to 100 nM.

In the case of `C[C@@H](Cn1cnnn1)Oc1cc(-c2cnc(Nc3cn(CC4(O)CCN(C)CC4)nc3C(F)(F)F)nc2)ccc1Cl` [Example 891, (S)-4-((4-((5-(3-((1-(1H-tetrazol-1-yl)propan-2-yl)oxy)-4-chlorophenyl)pyrimidin-2-yl)amino)-3-(trifluoromethyl)-1H-pyrazol-1-yl)methyl)-1-methylpiperidin-4-ol], the 50% inhibitory concentration (IC50) under setting [1] is < 10 nM.

In the case of `C[C@@H](Cn1cnnn1)Oc1cc(-c2cnc(Nc3cn(C4CC5(C4)CN(c4ccccn4)C5)nc3OCC(F)(F)F)nc2)ccc1Cl` [Example 1001, (S)-5-(3-((1-(1H-tetrazol-1-yl)propan-2-yl)oxy)-4-chlorophenyl)-N-(1-(2-(pyridin-2-yl)-2-azaspiro[3.3]heptan-6-yl)-3-(2,2,2-trifluoroethoxy)-1H-pyrazol-4-yl)pyrimidin-2-amine], the IC50 under setting [1] was < 10 nM.

In the case of `C[C@@H](Cn1cnnn1)Oc1cc(-c2cnc(Nc3cn([C@H]4CC[C@@H](N5CCOCC5)CC4)nc3C(F)(F)F)nc2)ccc1Cl` [Example 781, 5-(3-(((S)-1-(1H-tetrazol-1-yl)propan-2-yl)oxy)-4-chlorophenyl)-N-(1-(cis-4-morpholinocyclohexyl)-3-(trifluoromethyl)-1H-pyrazol-4-yl)pyrimidin-2-amine], the IC50 under setting [2] is < 10 nM.

Regarding `C[C@@H](Cn1cnnn1)Oc1cc(-c2cnc(Nc3cn(C4CCN(C)CC4)nc3C(F)(F)F)nc2)ccc1Cl` [Example 487, (S)-5-(3-((1-(1H-tetrazol-1-yl)propan-2-yl)oxy)-4-chlorophenyl)-N-(1-(1-methylpiperidin-4-yl)-3-(trifluoromethyl)-1H-pyrazol-4-yl)pyrimidin-2-amine], the IC50 under setting [4] is < 10 nM.

Compound `C[C@@H](Cn1cnnn1)Oc1cc(-c2cnc(Nc3cn(C(C)(C)C(=O)N4CCOCC4)nc3OCC(F)(F)F)nc2)ccc1Cl` [Example 895, (S)-2-(4-((5-(3-((1-(1H-tetrazol-1-yl)propan-2-yl)oxy)-4-chlorophenyl)pyrimidin-2-yl)amino)-3-(2,2,2-trifluoroethoxy)-1H-pyrazol-1-yl)-2-methyl-1-morpholinopropan-1-one] returned a concentration for half-maximal inhibition (IC50) under setting [1] of 10 to 100 nM.

On to `CCn1cc(Nc2ncc(-c3ccc(Cl)c(O[C@@H](C)Cn4cnnn4)c3)cn2)c(C(=O)O)n1` [Example 876, (S)-4-((5-(3-((1-(1H-tetrazol-1-yl)propan-2-yl)oxy)-4-chlorophenyl)pyrimidin-2-yl)amino)-1-ethyl-1H-pyrazole-3-carboxylic acid], for which the concentration for half-maximal inhibition (IC50) under setting [2] lay within 10 to 100 nM.

`COc1nc(N2CCN(C3CCOC3)CC2)ccc1Nc1ncc(-c2ccc(Cl)c(O[C@@H](C)Cn3cnnn3)c2)cn1` (stereo partly drawn) [Example 640, 5-(3-(((S)-1-(1H-tetrazol-1-yl)propan-2-yl)oxy)-4-chlorophenyl)-N-(2-methoxy-6-(4-(tetrahydrofuran-3-yl)piperazin-1-yl)pyridin-3-yl)pyrimidin-2-amine]: the IC50 under setting [3] lay within 10 to 100 nM.

Turning to `C[C@H](Cn1cnnn1)Oc1cc(-c2cnc(Nc3cn([C@H]4CC[C@H](N5CCOCC5)CC4)nc3C(F)(F)F)nc2)ccc1Cl` [Example 893, 5-(3-(((R)-1-(1H-tetrazol-1-yl)propan-2-yl)oxy)-4-chlorophenyl)-N-(1-(trans-4-morpholinocyclohexyl)-3-(trifluoromethyl)-1H-pyrazol-4-yl)pyrimidin-2-amine], the IC50 under setting [1] lay within 10 to 100 nM.

Turning to `C[C@@H](Cn1cnnn1)Oc1cc(-c2cnc(Nc3cn(CC(O)CO)nc3C(F)(F)F)nc2)ccc1Cl` (stereo partly drawn) [Example 736, 3-(4-((5-(3-(((S)-1-(1H-tetrazol-1-yl)propan-2-yl)oxy)-4-chlorophenyl)pyrimidin-2-yl)amino)-3-(trifluoromethyl)-1H-pyrazol-1-yl)propane-1,2-diol], the IC50 under setting [2] was < 10 nM.

For `COc1ccc(N2CCN(C(=O)CN(C)C)CC2)cc1Nc1ncc(-c2ccc(Cl)c(O[C@@H](C)Cn3cnnn3)c2)cn1` [Example 583, (S)-1-(4-(3-((5-(3-((1-(1H-tetrazol-1-yl)propan-2-yl)oxy)-4-chlorophenyl)pyrimidin-2-yl)amino)-4-methoxyphenyl)piperazin-1-yl)-2-(dimethylamino)ethan-1-one], under setting [3], the IC50 was < 10 nM.

The compound `C[C@@H](Cn1cnnn1)Oc1cc(-c2cnc(Nc3cn(C4CCCC4)nc3C(F)(F)F)nc2)ccc1Cl` [Example 739, (S)-5-(3-((1-(1H-tetrazol-1-yl)propan-2-yl)oxy)-4-chlorophenyl)-N-(1-cyclopentyl-3-(trifluoromethyl)-1H-pyrazol-4-yl)pyrimidin-2-amine] returned an IC50 under setting [2] of 10 to 100 nM.

Take `CCOC(=O)C(C)(C)n1cc(Nc2ncc(-c3ccc(Cl)c(O[C@@H](C)Cn4cnnn4)c3)cn2)c(OCC(F)(F)F)n1` [Example 885, ethyl (S)-2-(4-((5-(3-((1-(1H-tetrazol-1-yl)propan-2-yl)oxy)-4-chlorophenyl)pyrimidin-2-yl)amino)-3-(2,2,2-trifluoroethoxy)-1H-pyrazol-1-yl)-2-methylpropanoate]: the IC50 under setting [1] is < 10 nM.

Take `C[C@@H](Cn1cnnn1)Oc1cc(-c2cnc(Nc3cn(C)nc3OCC(F)(F)F)nc2)ccc1C#N` [Example 765, (S)-2-((1-(1H-tetrazol-1-yl)propan-2-yl)oxy)-4-(2-((1-methyl-3-(2,2,2-trifluoroethoxy)-1H-pyrazol-4-yl)amino)pyrimidin-5-yl)benzonitrile]: the concentration for half-maximal inhibition (IC50) under setting [2] was < 10 nM.

On to `COc1cc(N2CCCN(C3CCOCC3)CC2)ccc1Nc1ncc(-c2ccc(Cl)c(O[C@@H](C)Cn3cnnn3)c2)cn1` [Example 693, (S)-5-(3-((1-(1H-tetrazol-1-yl)propan-2-yl)oxy)-4-chlorophenyl)-N-(2-methoxy-4-(4-(tetrahydro-2H-pyran-4-yl)-1,4-diazepan-1-yl)phenyl)pyrimidin-2-amine], for which the IC50 under setting [3] was < 10 nM.
